# Molecular target: T1, human GPR120 (Homo sapiens, UniProt Q5NUL3)
# T1 construct: host or cells: HEK293 cells co-expressing Gqi5
# T1 sequence (Q5NUL3 1-361): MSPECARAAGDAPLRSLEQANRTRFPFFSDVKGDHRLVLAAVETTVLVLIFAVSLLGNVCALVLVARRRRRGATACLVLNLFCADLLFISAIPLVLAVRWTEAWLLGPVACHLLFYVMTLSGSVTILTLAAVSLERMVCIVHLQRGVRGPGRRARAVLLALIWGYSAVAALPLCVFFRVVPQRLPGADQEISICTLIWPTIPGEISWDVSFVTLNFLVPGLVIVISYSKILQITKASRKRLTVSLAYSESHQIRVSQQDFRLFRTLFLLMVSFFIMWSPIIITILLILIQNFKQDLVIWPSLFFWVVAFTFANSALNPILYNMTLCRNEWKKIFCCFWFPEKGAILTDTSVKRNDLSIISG
# Test: Intracellular Ca2+ assay in human GPR120 stable cell line (FLIPR Calcium 4 dye, Flexstation)
# Type: cell-based
# Settings: % activity at 2.5 µM compared to the maximal activity of the compound of Example 25 at 2.5 µM (=100%); HEK293 cells co-expressing Gqi5
row,Compound,% Activity (Ex. 25 Reference Compound)
1,"CC1(C)Cc2cc(F)cc(COc3c(F)cc(CC4CC4C(=O)O)cc3F)c2O1 (single isomer, unassigned) [Example 184A, 2-(3,5-difluoro-4-((5-fluoro-2,2-dimethyl-2,3-dihydrobenzofuran-7-yl)methoxy)benzyl)cyclopropanecarboxylic acid]",95.58%
2,"CC1(C)Cc2cc(F)cc(COc3c(F)cc(CC4CC4C(=O)O)cc3F)c2O1 (stereo not shown) [Example 184, 2-(3,5-difluoro-4-((5-fluoro-2,2-dimethyl-2,3-dihydrobenzofuran-7-yl)methoxy)benzyl)cyclopropanecarboxylic acid]",97.04%

# Same assay, conditions: HEK293, % activity at 2.5 µM compared to the maximal activity of the compound of Example 25 at 2.5 µM (=100%); HEK293 cells co-expressing Gqi5; read-out: % Activity (Ex. 25 Reference Compound)
row,activity at 2.5 µM,Compound
1,141%,"Cc1c(CCC(=O)O)ccc(OCc2cc(Cl)cc3c2CC(C)(C)O3)c1C [Example 267, 3-(4-((6-chloro-2,2-dimethyl-2,3-dihydrobenzofuran-4-yl)methoxy)-2,3-dimethylphenyl)propanoic acid]"
2,98.4%,"CC(CC(=O)O)Cc1ccc(OCc2cc(F)cc3c2OC(C)(C)C3)cc1 (stereo not shown) [Example 182, 4-(4-((5-fluoro-2,2-dimethyl-2,3-dihydrobenzofuran-7-yl)methoxy)phenyl)-3-methylbutanoic acid]"
3,16.7%,"CC(Cc1cc(F)c(OCc2cccc3cn[nH]c23)c(F)c1)C(=O)O (stereo not shown) [Example 260, 3-(4-((1H-indazol-7-yl)methoxy)-3,5-difluorophenyl)-2-methylpropanoic acid]"
4,140%,"CC(C)Oc1ccc(Cl)cc1COc1ccc2c(c1)CCC2CC(=O)O (stereo not shown) [Example 258, 2-(5-((5-chloro-2-isopropoxybenzyl)oxy)-2,3-dihydro-1H-inden-1-yl)acetic acid]"
5,160%,"[2H]C([2H])(C(=O)O)C([2H])([2H])c1ccc(OCc2cc(Cl)cc3c2OC(C)(C)C3)c(F)c1 [Example 241, 3-(4-((5-chloro-2,2-dimethyl-2,3-dihydrobenzofuran-7-yl)methoxy)-3-fluorophenyl)-2,2,3,3-tetradeuteriopropanoic acid]"
6,104%,"CC1(C)Cc2c(COc3ccc4c(c3)CC[C@@H]4CC(=O)O)cc(F)cc2O1 [Example 188, (R)-2-(5-((6-fluoro-2,2-dimethyl-2,3-dihydrobenzofuran-4-yl)methoxy)-2,3-dihydro-1H-inden-1-yl)acetic acid]"
7,144%,"CCc1c(CCC(=O)O)ccc(OCc2cc(F)cc3c2OC(C)(C)C3)c1F [Example 216, 3-(2-ethyl-3-fluoro-4-((5-fluoro-2,2-dimethyl-2,3-dihydrobenzofuran-7-yl)methoxy)phenyl)propanoic acid]"
8,119%,"[2H]C([2H])(Oc1ccc(CCC(=O)O)c(CC)c1F)c1cc(F)cc2c1OC(C)(C)C2 [Example 228, 3-(4-(dideuterio(5-fluoro-2,2-dimethyl-2,3-dihydrobenzofuran-7-yl)methoxy)-3-fluoro-2-ethylphenyl)propanoic acid]"
9,149%,"CC1(C)Cc2cc(Cl)cc(COc3ccc(C(C)(C)CC(=O)O)cc3)c2O1 [Example 156, 3-(4-((5-chloro-2,2-dimethyl-2,3-dihydrobenzofuran-7-yl)methoxy)phenyl)-3-methylbutanoic acid]"
10,83.8%,"Cc1cc2cccc(COc3ccc4c(c3)CCC4CC(=O)O)c2s1 (stereo not shown) [Example 152, 2-(5-((2-methylbenzo[b]thiophen-7-yl)methoxy)-2,3-dihydro-1H-inden-1-yl)acetic acid]"
11,165%,"CC(Cc1ccc(OCc2cc(Cl)cc3c2OC2(CCCC2)C3)cc1)C(=O)O (stereo not shown) [Example 159, 3-(4-((5-chloro-3H-spiro[benzofuran-2,1'-cyclopentane]-7-yl)methoxy)phenyl)-2-methylpropanoic acid]"

# The next lines start with the molecule.
row,Compound,activity at 2.5 µM
1,"CC(Cc1ccc(OCc2c(F)ccc3c2CC(C)(C)O3)cc1)C(=O)O (stereo not shown) [Example 96, 3-(4-((5-fluoro-2,2-dimethyl-2,3-dihydrobenzofuran-4-yl)methoxy)phenyl)-2-methylpropanoic acid]",125%
2,"Cc1cc2cccc(COc3c(F)cc(CC(C)C(=O)O)cc3F)c2s1 (stereo not shown) [Example 151, 3-(3,5-difluoro-4-((2-methylbenzo[b]thiophen-7-yl)methoxy)phenyl)-2-methylpropanoic acid]",117%
3,"CC1(C)Cc2cc(F)cc(COc3ccc(CC(=O)O)cc3)c2O1 [Example 133, 2-(4-((5-fluoro-2,2-dimethyl-2,3-dihydrobenzofuran-7-yl)methoxy)phenyl)acetic acid]",103%
4,"CC(Cc1ccc(NC(=O)c2cc(F)cc3c2OC(C)(C)C3)cc1)C(=O)O (stereo not shown) [Example 68, 3-(4-(5-fluoro-2,2-dimethyl-2,3-dihydrobenzofuran-7-carboxamido)phenyl)-2-methylpropanoic acid]",69%
5,"CC1(C)Cc2cc(F)cc(COc3ccc(CCC(=O)O)c4c3CCC4)c2O1 [Example 63, 3-(7-((5-fluoro-2,2-dimethyl-2,3-dihydrobenzofuran-7-yl)methoxy)-2,3-dihydro-1H-inden-4-yl)propanoic acid]",95%
6,"CC1(C)Cc2c(ccc(F)c2COc2c(F)cc(C3CC3C(=O)O)cc2F)O1 (stereo not shown) [Example 99, 2-(3,5-difluoro-4-((5-fluoro-2,2-dimethyl-2,3-dihydrobenzofuran-4-yl)methoxy)phenyl)cyclopropanecarboxylic acid]",102%
7,"CC1(C)Cc2cc(F)cc(COc3ccc4cc(C(=O)O)ccc4c3)c2O1 [Example 114, 6-((5-fluoro-2,2-dimethyl-2,3-dihydrobenzofuran-7-yl)methoxy)-2-naphthoic acid]",124%
8,"CC1(C)Cc2cc(Cl)cc(COc3ccc(CCC(=O)O)c(F)c3)c2O1 [Example 53, 3-(4-((5-chloro-2,2-dimethyl-2,3-dihydrobenzofuran-7-yl)methoxy)-2-fluorophenyl)-propanoic acid]",143%
9,"CC1(C)Cc2cc(F)cc(COc3ccc(C4CC4C(=O)O)cc3)c2O1 (stereo not shown) [Example 131A, 2-(4-((5-fluoro-2,2-dimethyl-2,3-dihydrobenzofuran-7-yl)methoxy)phenyl) cyclopropanecarboxylic acid]",104%
10,"CCN(CC)c1cc(COc2ccc(CC(C)C(=O)O)cc2)c2c(c1)CC(C)(C)O2 (stereo not shown) [Example 89, 3-(4-((5-(diethylamino)-2,2-dimethyl-2,3-dihydrobenzofuran-7-yl)methoxy)phenyl)-2-methylpropanoic acid]",82.3%
11,"C[C@H](Cc1ccc(OCc2cc(Cl)cc3c2OC(C)(C)C3)c(C(F)(F)F)c1)C(=O)O [Example 143, (R)-3-(4-((5-chloro-2,2-dimethyl-2,3-dihydrobenzofuran-7-yl)methoxy)-3-(trifluoromethyl)phenyl)-2-methylpropanoic acid]",90.6%
12,"CCc1cc(OCc2cccc3c2CC(C)(C)O3)ccc1CCC(=O)O [Example 140, 3-(4-((2,2-dimethyl-2,3-dihydrobenzofuran-4-yl)methoxy)-2-ethylphenyl)propanoic acid]",146%
13,"[2H]C1([2H])c2cc(Cl)cc(COc3ccc(CC(C)C(=O)O)cc3C(F)(F)F)c2OC1(C)C (stereo not shown) [Example 147, 3-(4-((3,3-dideuterio-5-chloro-2,2-dimethyl-2,3-dihydrobenzofuran-7-yl)methoxy)-3-(trifluoromethyl)phenyl)-2-methylpropanoic acid]",139%

# Same assay, conditions: HEK293, % activity at 5 µM compared to the maximal activity of GW9508 at 6.7 µM (=100%); HEK293 cells co-expressing Gqi5; read-out: %Activity (GW9508 Reference Compound)
row,Compound,activity at 5 µM
1,"CC(Cc1cc(F)c(OCc2ccc(F)c3c2OC(C)(C)C3)c(F)c1)C(=O)O (stereo not shown) [Example 28, 3-(3,5-difluoro-4-((4-fluoro-2,2-dimethyl-2,3-dihydrobenzofuran-7-yl)methoxy)phenyl)-2-methylpropanoic acid]",110%
2,"CC1(C)Cc2c(C(F)(F)F)ccc(COc3c(F)cc(C4CC4C(=O)O)cc3F)c2O1 (stereo not shown) [Example 31, 2-(4-((2,2-dimethyl-4-(trifluoromethyl)-2,3-dihydrobenzofuran-7-yl)methoxy)-3,5-difluorophenyl)cyclopropanecarboxylic acid]",150%
3,"Cc1cc(CC(C)C(=O)O)ccc1OCc1cc(Cl)cc2c1OC(C)(C)C2 (stereo not shown) [Example 11, 3-(4-((5-chloro-2,2-dimethyl-2,3-dihydrobenzofuran-7-yl)methoxy)-3-methylphenyl)-2-methylpropanoic acid]",124%
4,"CC1(C)Cc2cccc(COc3c(F)cc(CCC(=O)O)cc3F)c2O1 [Example 25, 3-(4-((2,2-dimethyl-2,3-dihydrobenzofuran-7-yl)methoxy)-3,5-difluorophenyl)propanoic acid]",102%
5,"CC(Cc1ccc(OCc2cccc3c2CC(C)(C)O3)cc1)C(=O)O (stereo not shown) [Example 17, 3-(4-((2,2-dimethyl-2,3-dihydrobenzofuran-4-yl)methoxy)phenyl)-2-methylpropanoic acid]",72.2%
6,"CC1(C)Cc2cccc(COc3c(F)cc(C4CC4C(=O)O)cc3F)c2O1 (stereo not shown) [Example 24, 2-(4-((2,2-dimethyl-2,3-dihydrobenzofuran-7-yl)methoxy)-3,5-difluorophenyl) cyclopropanecarboxylic acid]",100%

# Same assay, conditions: eight concentrations from 0.00001 to 20 µM; changes (Max-Min) of fluorescence intensity
row,Compound,EC50
1,"CC1(C)Cc2cc(F)cc(COc3ccc(CC(=O)O)cc3)c2O1 [Example 133, 2-(4-((5-fluoro-2,2-dimethyl-2,3-dihydrobenzofuran-7-yl)methoxy)phenyl)acetic acid]",1 to 10 µM

# Same assay, conditions: typical value, reference compounds of the Ca2+ assay
row,Compound,concentration at which activity reached a maximum
1,"CC1(C)Cc2cccc(COc3c(F)cc(CCC(=O)O)cc3F)c2O1 [Example 25, 3-(4-((2,2-dimethyl-2,3-dihydrobenzofuran-7-yl)methoxy)-3,5-difluorophenyl)propanoic acid]",approximately 2.5 µM
